The text below walks through data of patent US4123532A, “Method for treatment of asthma” (E. R. Squibb & Sons, Inc., priority 1977, dated 1978).

The subject of the experiment is reaginic antibody-induced passive cutaneous anaphylaxis (PCA) reaction. Put plainly: Passive Cutaneous Anaphylaxis (PCA) Test in rats (anti-asthma activity). It counts as in vivo, rat. As to conditions: for anti-asthma activity: rat PCA testing, result in words; for ED50: Rattus norvegicus, read-out: ID50 (the source's name). The text has this: The skin of rats is first sensitized by the intradermal injection of reaginic (allergic) antibody. Twenty-four hours later, the animals receive a challenge injection of antigen together with Evan's blue dye given intravenously. The antigen, thus injected directly into the circulation, encounters the antibody in the skin and an "allergic reaction" occurs which is identified by the formation of intracutaneous edema. The edema is marked by the presence of the Evan's blue dye in the circulation.
The anti-asthmatic activity of these compounds is determined by the reaginic antibody-induced passive cutaneous anaphylaxis (PCA) reaction in rats.
In this test, 0.05 ml of appropriately diluted whole rat serum containing IgE antibody is injected intradermally into the skin of a rat. The next day, the animals are dosed with the test compound ten minutes prior to the i.v. challenge injection of antigen and Evan's blue dye. Thirty minutes later, the animals are sacrificed, the skin reflected and the reaction quantitated by measuring the dye-marked edema and scoring the color intensity of the reaction.

The mark [1] stands for this setting: IP, 75 mpk, rats dosed ten min. prior to challenge.
[2] abbreviates: IP, rats dosed ten min. prior to challenge.

SMILES strings stand for the structures. Read-outs that look alike come from different tables or passages of the source.

Take `CCOC(=O)c1c(-c2ccccc2)nn2c(=O)[nH]c3ccccc3c12` [5,6-Dihydro-5-oxo-2-phenylpyrazolo[1,5-c]quinazoline-1-carboxylic acid, ethyl ester]: the anti-asthma activity entry is reported as “has anti-asthma activity”. Under setting [1], this molecule showed a Maximum % inhibition of 42%.
In the case of `CCCCOC(=O)c1cc2c3ccccc3[nH]c(=O)n2n1` [5,6-Dihydro-5-oxopyrazolo[1,5-c]-quinazoline-2-carboxylic acid, n-butyl ester], the anti-asthma activity result is “has anti-asthma activity”. The same molecule returned a Maximum % inhibition (IP, (150 mpk) (10 mg/kg) both printed, rats dosed ten min. prior to challenge) of 78%. Moreover, under setting [2], the ED50 worked out at 9 mg/kg.
On to `CCOC(=O)c1cc2c3ccccc3[nH]c(=O)n2n1` [5,6-Dihydro-5-oxopyrazolo[1,5-c]quinazoline-2-carboxylic acid, ethyl ester], for which the anti-asthma activity entry is on record as “has anti-asthma activity”. For the setting “IP, 10 mg/kg, rats dosed ten min. prior to challenge”, this molecule displayed a Maximum % inhibition of 94%. Also, the Maximum % inhibition (PO, 9 mg/kg, rats dosed ten min. prior to challenge) stood at 95%. The ED50 under setting [2] came to 2 mg/kg. Further, where the note is “PO (orally), rats dosed ten min. prior to challenge”, the ED50 was found to be 3 mg/kg.
Regarding `CCOC(=O)c1cc2c3cc(Cl)ccc3[nH]c(=O)n2n1` [9-Chloro-5,6-dihydro-5-oxopyrazolo[1,5-c]quinazoline-2-carboxylic acid, ethyl ester], the anti-asthma activity entry is given as “has anti-asthma activity”. For the same molecule, the Maximum % inhibition under setting [1] is on record as 93%. Besides, the ED50 under setting [2] was determined as 9 mg/kg.
With `COC(=O)c1nn2c(=O)[nH]c3ccccc3c2c1C(=O)OC` [Example 11], the “% Inhibition” value (PCA, IP, 150 mpk) came out at 21%.
With `CC(=O)c1cc2c3ccccc3[nH]c(=O)n2n1` [Example 12], for the setting “PCA, IP, 75 mpk”, the “% Inhibition” value is 32%.
Still for that read-out and setting: the value for `O=C(O)c1cc2c3ccccc3[nH]c(=O)n2n1` [Example 13, 5,6-Dihydro-5-oxopyrazolo-[1,5-c]quinazoline-2-carboxylic acid] was 36%.
In the case of `CC(=O)c1cc2c3ccccc3n(C)c(=O)n2n1` [Example 14], the “% Inhibition” value (PCA, IP, 150 mpk) amounted to 32%.
For `CCOC(=O)c1nn2c(=O)[nH]c3ccccc3c2c1C` [Example 15], the “% Inhibition” value (PCA, IP, 150 mpk) is 63%. Besides, the ED50 (PCA, IP) stood at 58 mg/kg.
As for `O=C(c1ccccc1)c1cc2c3ccccc3[nH]c(=O)n2n1` [Example 16], the “% Inhibition” value (PCA, IP, 150 mpk) turned out to be 37%.
Turning to `CCOC(=O)c1cc2c3cc(OC)ccc3[nH]c(=O)n2n1` [Example 17], the “% Inhibition” value (PCA, IP, 25 mpk) is given as 90%.
As for `O=c1[nH]c2ccccc2c2ccnn12` [Pyrazolo[1,5-c]quinazoline-5(6H)-one, Pyrazolo[1,5-c]quinazolin-5(6H)-one], the anti-asthma activity result is “has anti-asthma activity”. Under setting [1], this molecule gave a Maximum % inhibition of 59%.
